Where two headings read alike, the source gives them in different places.
Key:
[1] = tested on: Barnyard grass (Echinochloa crusgalli L.); assay: Herbicidal activity, foliar spraying (spectrum and SAR study); assay type: in vivo; settings: for pest or weed control at 5000 µg/mL: Echinochloa crus-galli, 72 h, read-out: Efficacy of phytotoxic activity; for pest or weed control at 5000 µg/mL / Efficacy of phytotoxic activity: at least 3 days after spraying
Description: (§1) All weed, sedge and crop seedlings were planted in 8 cm×8 cm×7.2 cm or 10 cm×10 cm×9 cm plastic pots. Seedlings including pigweed (Amaranthus retroflexus, L.), barnyard grass (Echinochloa crusgalli L.), bindweed (Convolvulus arvensis L.), crabgrass (Digitaria sanguinalis L.), dandelion (Taraxacum officinale F.), lambsquarters (Chenopodium album L.), bluegrass (Poa annua L.), wild mustard (Brassica kaber L.), black nightshade (Solanum nigrum L.), curly dock (Rumex crispus L.), horseweed (Conyza Canadensis L.), sweet corn (Zea may S.) and wheat PR 1404 (Triticum aestivum L.) were planted in Super Soil potting soil. Seedlings including rice M-104 (Oryza saliva L.), sedge (Cyperus difformis L.) and sprangletop (Leptochloa fascicularis Lam) were planted in mud which was collected from rice field (Woodland, Calif., USA). When treated, all seedlings were 15 days old except for rice (10 days), wheat (20 days), corn (20 days) sprangletop (20 days old), sedge (20 days old) and horse weed (70 days old).
(§2) Herbicidal activity of the active compound and synthesized compounds was evaluated by foliar spraying. Spraying carrier solution contained 2% ethanol, 0.2% glycosperse O-20 and 0.1% sodium lauryl sulfate. Freshly made solution with the evaluated compound at a concentration of 5 mg/mL was used. In the spectrum study, spraying volume was dependent on the foliar surface area, ranging from approximately 1 to 3 mL/pot plants. One or two pots of plants were treated for each. Number of pots was dependent on both foliar area and availability. In the structure-activity relationship study, one pot of barnyard grass was used and the spraying volume of each compound was 3 mL of 5 mg/mL.
(§3) The optimal concentration of sarmentine was 5 mg/mL for excellent control of barnyard grass (Figure 2). Therefore, such a concentration was subjected to herbicidal spectrum study. Due to the hydrophobic property of sarmentine, a carrier solution containing 0.2% glycosperse O-20, 2% ethanol and 0.1% sodium lauryl sulfate was used. Although this solution contains a high concentration of surfactants, sarmentine can stay suspended in this solution no more than 15 min. Therefore, sarmentine was made freshly just before spraying.

[2] = tested on: Bindweed (Convolvulus arvensis, L.); assay: Herbicidal spectrum, foliar spraying; assay type: in vivo; settings: foliar spray 5 mg/mL
Description: as §1, §2, §3

[3] = tested on: Black nightshade (Solanum nigrum L.); assay: Herbicidal spectrum, foliar spraying; assay type: in vivo; settings: foliar spray 5 mg/mL
Description: as §1, §2, §3

Bluegrass (Poa annua L.) = assay: Herbicidal spectrum, foliar spraying; assay type: in vivo; settings: foliar spray 5 mg/mL
Description: as §1, §2, §3

[4] = tested on: Crabgrass (Digitaria sanguinalis L.); assay: Herbicidal spectrum, foliar spraying; assay type: in vivo; settings: foliar spray 5 mg/mL
Description: as §1, §2, §3

[5] = tested on: Curly dock (Rumex crispus L.); assay: Herbicidal spectrum, foliar spraying; assay type: in vivo; settings: foliar spray 5 mg/mL
Description: as §1, §2, §3

[6] = tested on: Dandelion (Taraxacum officinale F.); assay: Herbicidal spectrum, foliar spraying; assay type: in vivo; settings: foliar spray 5 mg/mL
Description: as §1, §2, §3

[7] = tested on: Horse weed (Conyza Canadensis L.); assay: Herbicidal spectrum, foliar spraying; assay type: in vivo; settings: foliar spray 5 mg/mL
Description: as §1, §2, §3

[8] = tested on: Lambsquarters (Chenopodium album L.); assay: Herbicidal spectrum, foliar spraying; assay type: in vivo; settings: foliar spray 5 mg/mL
Description: as §1, §2, §3

[9] = tested on: Pigweed (Amaranthus retroflexus, L.); assay: Herbicidal spectrum, foliar spraying; assay type: in vivo; settings: foliar spray 5 mg/mL
Description: as §1, §2, §3

[10] = tested on: Rice (M 104) (Oryza saliva L); assay: Herbicidal spectrum, foliar spraying; assay type: in vivo; settings: foliar spray 5 mg/mL
Description: as §1, §2, §3

[11] = tested on: Sedge (Cyperus difformis L.); assay: Herbicidal spectrum, foliar spraying; assay type: in vivo; settings: foliar spray 5 mg/mL
Description: as §1, §2, §3

[12] = tested on: Sprangletop (Leptochloa fascicularis Lam.); assay: Herbicidal spectrum, foliar spraying; assay type: in vivo; settings: foliar spray 5 mg/mL
Description: as §1, §2, §3

Sweet corn (Zea mays S.) = assay: Herbicidal spectrum, foliar spraying; assay type: in vivo; settings: foliar spray 5 mg/mL
Description: as §1, §2, §3

[13] = tested on: Wheat (PR 1404) (Triticum aestivum L.); assay: Herbicidal spectrum, foliar spraying; assay type: in vivo; settings: foliar spray 5 mg/mL
Description: as §1, §2, §3

[14] = tested on: Wild mustard (Brassica kaber L.); assay: Herbicidal spectrum, foliar spraying; assay type: in vivo; settings: foliar spray 5 mg/mL
Description: as §1, §2, §3

[15] = Suspension of sarmentine in spraying carrier solution; assay type: physicochemical; settings: 0.2% glycosperse O-20, 2% ethanol and 0.1% sodium lauryl sulfate
Experimental: as §3

plants = assay: Symptom of phytotoxic activity after spraying; assay type: in vivo; settings: sarmentine solution
Experimental: as §2
Sarmentine is a contact phytotoxic compound. When plants were treated with sarmentine solution, slightly black tiny spots would first show on the leaves and then became bigger and bigger until they covered the whole leaves, especially obvious on the barnyard grass. […] This symptom was observed very similarly to that of middle-chain fatty acids such as decanoic acid (21, Table 4) and 2E-decenoic acid (22, Table 3) during the SAR study.

[16] = SAR study, one pot of barnyard grass, foliar spray 3 mL of 5 mg/mL
[17] = SAR study, barnyard grass, foliar spray 3 mL of 5 mg/mL
[18] = 15 days old, 1 to 3 mL/pot, at least 3 days after spraying
[19] = 20 days old, 1 to 3 mL/pot, at least 3 days after spraying

CCCCC/C=C\C=C\C(=O)OCC [No 3]
pest or weed control at 5000 µg/mL [1, 16]: < 20%

CCCCCCCCCC(=O)NC1CCCC1 [No 4, N-Cyclopentyldecanamide]
pest or weed control at 5000 µg/mL [1, 16]: < 20%

CCCCC/C=C\C=C\C(=O)NC1CCCC1 [No 6, N-Cyclopentyl 2E,4Z-decadienamide]
pest or weed control at 5000 µg/mL [1, 16]: < 20%

O=C(/C=C/c1ccccc1)NC1CCCC1 [No 7, N-Cyclopentylcinnamamide]
pest or weed control at 5000 µg/mL [1, 16]: < 20%

CCCCCCCCCC(=O)N1CCCC1 [No 8, N-(Decanoyl)pyrrolidine]
pest or weed control at 5000 µg/mL [1, 16]: 80 to 100%
Phytotoxic activity relative to sarmentine / toxicity to barnyard grass (in words) [1, 17]: remained the same

CCCCCCC/C=C/C(=O)N1CCCC1 [No 9, N-(Decenoyl)pyrrolidine]
pest or weed control at 5000 µg/mL [1, 16]: 80 to 100%
Phytotoxic activity relative to sarmentine / toxicity to barnyard grass (in words) [1, 17]: remained the same

CCCCC/C=C\C=C\C(=O)N1CCCC1 [No 10, (2E,4Z-Decadienoyl)pyrrolidine]
pest or weed control at 5000 µg/mL [1, 16]: 80 to 100%
Phytotoxic activity relative to sarmentine / toxicity to barnyard grass (in words) [1, 17]: remained the same

O=C(/C=C/c1ccccc1)N1CCCC1 [No 11, N-(trans-Cinnamoyl)pyrrolidine]
pest or weed control at 5000 µg/mL [1, 16]: 80 to 100%
Phytotoxic activity relative to sarmentine / toxicity to barnyard grass (in words) [1, 17]: remained the same

CCCCCCCCCC(=O)N1CCCCC1 [No 12, N-(Decanoyl)piperidine]
pest or weed control at 5000 µg/mL [1, 16]: 80 to 100%
Phytotoxic activity relative to sarmentine / toxicity to barnyard grass (in words) [1, 17]: remained the same

CCCCCCC/C=C/C(=O)N1CCCCC1 [No 13, N-(Decenoyl)piperidine]
pest or weed control at 5000 µg/mL [1, 16]: 80 to 100%

CCCCC/C=C\C=C\C(=O)N1CCCCC1 [No 14, (2E,4Z-Decadienoyl)piperidine]
pest or weed control at 5000 µg/mL [1, 16]: 80 to 100%

O=C(/C=C/c1ccccc1)N1CCCCC1 [No 15, N-(trans-Cinnamoyl)piperidine]
pest or weed control at 5000 µg/mL [1, 16]: 40 to 60%

CCCCCCCCCC(=O)N1CCCCCC1 [No 16, N-(Decanoyl)hexamethyleneimine]
pest or weed control at 5000 µg/mL [1, 16]: 80 to 100%
Phytotoxic activity relative to sarmentine / toxicity to barnyard grass (in words) [1, 17]: remained the same

CCCCCCC/C=C/C(=O)N1CCCCCC1 [No 17, N-(Decenoyl)hexamethyleneimine]
pest or weed control at 5000 µg/mL [1, 16]: 80 to 100%

CCCCC/C=C\C=C\C(=O)N1CCCCCC1 [No 18, (2E,4Z-Decadienoyl)hexamethleneimine]
pest or weed control at 5000 µg/mL [1, 16]: 80 to 100%

O=C(/C=C/c1ccccc1)N1CCCCCC1 [No 19, N-(trans-Cinnamoyl) hexamethleneimine]
pest or weed control at 5000 µg/mL [1, 16]: < 20%

O=C(O)/C=C/c1ccccc1 [No 20, trans-cinnamic acid, reference compound]
pest or weed control at 5000 µg/mL [1, 16]: 60 to 80%
Phytotoxic activity relative to sarmentine / toxicity to barnyard grass (in words) [1, 17]: very active

CCCCCCCCCC(=O)O [No 21, decanoic acid]
pest or weed control at 5000 µg/mL [1, 16]: 80 to 100%
Phytotoxic activity relative to sarmentine / toxicity to barnyard grass (in words) [1, 17]: very active

CCCCCCC/C=C/C(=O)O [No 22, 2E-decenoic acid]
pest or weed control at 5000 µg/mL [1, 16]: 80 to 100%
Phytotoxic activity relative to sarmentine / toxicity to barnyard grass (in words) [1, 17]: very active

NC1CCCC1 [No 23, cyclopentylamine, reference compound]
Phytotoxic activity relative to sarmentine / toxicity to barnyard grass (in words) [1, 17]: non toxic
Efficacy of phytotoxic activity [1, 16]: I

C1CCNCC1 [No 25, piperidine, reference compound]
Phytotoxic activity relative to sarmentine / toxicity to barnyard grass (in words) [1, 17]: non toxic
Efficacy of phytotoxic activity [1, 16]: I

C1CCCNCC1 [No 26, hexamethyleneimine, reference compound]
Phytotoxic activity relative to sarmentine / toxicity to barnyard grass (in words) [1, 17]: non toxic
Efficacy of phytotoxic activity [1, 16]: I

CCCCC/C=C/C=C/C(=O)N1CCCC1 [sarmentine, N-(2E,4E-Decadienoyl) pyrrolidine]
pest or weed control at 5000 µg/mL ([1]; spectrum study, barnyard grass, 15 days old, foliar spray 5 mg/mL, 1 to 3 mL/pot): 80 to 100%
Efficacy of phytotoxic activity [1, 16]: VI (VI (80-100%))
Optimal concentration for excellent control of barnyard grass ([1]; foliar spraying, Figure 2): 5 mg/mL
Phytotoxic activity (in words) ([1]; spectrum study, barnyard grass, foliar spray 5 mg/mL): highly phytotoxic activity
Efficacy of phytotoxic activity [2, 18]: VI (VI (80-100%))
Phytotoxic activity (in words) [2]: highly phytotoxic activity
Efficacy of phytotoxic activity [3, 18]: VI (VI (80-100%))
Phytotoxic activity (in words) [3]: highly phytotoxic activity
Phytotoxic activity (in words) (Bluegrass (Poa annua L.); blue grass): highly phytotoxic activity
Efficacy of phytotoxic activity (Bluegrass (Poa annua L.); bluegrass, 15 days old, 1 to 3 mL/pot, at least 3 days after spraying): VI (VI (80-100%))
Efficacy of phytotoxic activity [4, 18]: VI (VI (80-100%))
Phytotoxic activity (in words) [4]: highly phytotoxic activity
Efficacy of phytotoxic activity [5, 18]: VI (VI (80-100%))
Phytotoxic activity (in words) [5]: highly phytotoxic activity
Efficacy of phytotoxic activity [6, 18]: VI (VI (80-100%))
Phytotoxic activity (in words) [6]: highly phytotoxic activity
Efficacy of phytotoxic activity ([7]; horse weed, 70 days old, 1 to 3 mL/pot, at least 3 days after spraying): II (II (<20%))
Phytotoxic activity (in words) ([7]; horseweed (70-day-old)): Slightly phytotoxic activity
Efficacy of phytotoxic activity [8, 18]: VI (VI (80-100%))
Phytotoxic activity (in words) [8]: highly phytotoxic activity
Efficacy of phytotoxic activity [9, 18]: VI (VI (80-100%))
Phytotoxic activity (in words) [9]: highly phytotoxic activity
Efficacy of phytotoxic activity ([10]; rice M-104, 10 days old, 1 to 3 mL/pot, at least 3 days after spraying): I
Phytotoxic activity (in words) ([10]; rice plants, after 10 days): No visible phytotoxic activity
Efficacy of phytotoxic activity [11, 19]: III (III (20-40%))
Phytotoxic activity (in words) [11]: Slightly phytotoxic activity
Efficacy of phytotoxic activity [12, 19]: VI (VI (80-100%))
Phytotoxic activity (in words) [12]: highly phytotoxic activity
Efficacy of phytotoxic activity (Sweet corn (Zea mays S.); [19]): VI (VI (80-100%))
Phytotoxic activity (in words) (Sweet corn (Zea mays S.)): highly phytotoxic activity
Efficacy of phytotoxic activity ([13]; wheat PR 1404, 20 days old, 1 to 3 mL/pot, at least 3 days after spraying): VI (VI (80-100%))
Phytotoxic activity (in words) ([13]; wheat): highly phytotoxic activity
Efficacy of phytotoxic activity [14, 18]: VI (VI (80-100%))
Phytotoxic activity (in words) [14]: highly phytotoxic activity
Time sarmentine can stay suspended in carrier solution [15]: no more than 15 min
Time after spraying within which predominant phytotoxic activity happened (plants): ≤ 48 h

pyrrolidine [No 24, reference compound]
Phytotoxic activity relative to sarmentine / toxicity to barnyard grass (in words) [1, 17]: non toxic
Efficacy of phytotoxic activity [1, 16]: I

From patent publication US8957000B2, “Use of sarmentine and its analogs for controlling plant pests” (Marrone Bio Innovations, Inc., priority 2009, dated 2015)
